# Experimental data reported in paper PMC4871228 (European journal of medicinal chemistry, 2015).
# Where two headings read alike, the source gives them in different places.
# Tests used:
# KAT8 [1] = target: T1, KAT8 (Homo sapiens, UniProt Q9H7Z6); experiment: Isothermal titration calorimetry, titration to KAT8; format: binding; details: ITC, Ac-CoA vs KAT8
# T1 sequence (Q9H7Z6 1-458): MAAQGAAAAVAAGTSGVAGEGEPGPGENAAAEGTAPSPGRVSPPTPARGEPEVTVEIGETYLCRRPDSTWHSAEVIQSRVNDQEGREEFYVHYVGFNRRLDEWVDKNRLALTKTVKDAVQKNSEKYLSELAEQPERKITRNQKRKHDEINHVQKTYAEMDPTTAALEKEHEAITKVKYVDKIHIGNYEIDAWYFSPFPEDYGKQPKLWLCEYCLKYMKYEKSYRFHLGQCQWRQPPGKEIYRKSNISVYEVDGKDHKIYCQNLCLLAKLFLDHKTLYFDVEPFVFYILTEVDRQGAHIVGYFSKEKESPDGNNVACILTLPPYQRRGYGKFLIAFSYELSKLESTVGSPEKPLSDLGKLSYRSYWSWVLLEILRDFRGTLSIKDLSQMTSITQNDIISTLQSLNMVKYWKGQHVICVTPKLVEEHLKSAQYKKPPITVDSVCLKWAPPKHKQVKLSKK
# KAT8 [2] = target: T1, KAT8; experiment: Steady-state enzyme kinetics of KAT8 substrates; format: biochemical; details: for Km: read-out: Km of Ac-CoA
# KAT8 [3] = target: T1, KAT8; experiment: KAT8 inhibition, fluorescence-based assay detecting CoA with CPM; format: biochemical; details: within the investigated range of concentrations (up to 400 µM)
smiles,measurement,setting,value
"CC(=O)SCCNC(=O)CCNC(=O)[C@H](O)C(C)(C)COP(=O)(O)OP(=O)(O)OC[C@H]1O[C@@H](n2cnc3c(N)ncnc32)[C@H](O)[C@@H]1OP(=O)(O)O [Ac-CoA, acetyl coenzyme A]",-TΔS,KAT8 [1],−17228 cal/mol/degK
same,Kd,KAT8 [1],8.7 ± 1.2 µM
same,N (stoichiometry),KAT8 [1],0.95
same,ΔG,KAT8 [1],−6758
same,ΔH,KAT8 [1],10.47 ± 0.47 kcal/mol
same,Vmax of Ac-CoA,KAT8 [2]; 15 µM histone H4 peptide,3.4 ± 0.2 pmol/min
same,kcat of Ac-CoA,KAT8 [2]; 15 µM histone H4 peptide,0.0033 ± 0.00033 s⁻¹
same,Vmax of Ac-CoA,KAT8 [2]; 30 µM histone H4 peptide,4.5 ± 0.3 pmol/min
same,kcat of Ac-CoA,KAT8 [2]; 30 µM histone H4 peptide,0.005 ± 0.00033 s⁻¹
same,Vmax of Ac-CoA,KAT8 [2]; 60 µM histone H4 peptide,9.9 ± 0.3 pmol/min
same,kcat of Ac-CoA,KAT8 [2]; 60 µM histone H4 peptide,0.012 ± 0.00067 s⁻¹
same,Vmax of Ac-CoA,KAT8 [2]; 90 µM histone H4 peptide,14.7 ± 0.6 pmol/min
same,kcat of Ac-CoA,KAT8 [2]; 90 µM histone H4 peptide,0.0183 ± 0.001 s⁻¹
same,Km,KAT8 [2]; 15 µM histone H4 peptide,1.1 ± 0.3 µM
same,Km,KAT8 [2]; 30 µM histone H4 peptide,1.2 ± 0.3 µM
same,Km,KAT8 [2]; 60 µM histone H4 peptide,2.1 ± 0.3 µM
same,Km,KAT8 [2]; 90 µM histone H4 peptide,2.8 ± 0.5 µM
CCCCCc1cccc(O)c1C(=O)O [Compound 14],KAT8 inhibitory potency (in words),KAT8 [3],completely lose their affinity
CCCCCCCSCC(=O)c1ccccc1O [Compound 13],KAT8 inhibitory potency (in words),KAT8 [3],completely removed activity
O=C(O)c1c(O)cccc1CCCCCCCCCCCO [Compound 8b],KAT8 inhibitory potency (in words),KAT8 [3],loss of potency
CCCCCc1ccc(O)c(C(=O)O)c1 [Compound 11c],KAT8 inhibitory potency (in words),KAT8 [3],completely lose their affinity
